{"source": "patent US20170209605A1", "about": "“CARBOHYDRATE FUNCTIONALIZED CATANIONIC SURFACTANT VESICLES FOR DRUG DELIVERY” (University of Maryland, College Park, priority 2007, published 2017)", "assay": "Incorporation of glycoconjugate into SDBS-rich vesicles (SEC, colorimetric detection)", "type": "physicochemical", "settings": "SDBS/CTAT vesicles, twelve carbon tail", "excerpt": "In an experiment, glycoconjugates consisting of eight carbon tails were used. In all SDBS-rich vesicle test cases 18-25% of the conjugate eluted with the vesicle fractions. At the incorporation levels summarized in Table 1, the ratio of carbohydrate conjugate to surfactant is approximately 1:100. […] In another experiment, a glucose glycoconjugate with a twelve carbon tail, n-dodecyl-β-D-glucopyranoside (C12-glucose), was used. […] The method for preparing these vesicles is now described. Vesicles were prepared with the surfactants […], and C12-glu. […] Total surfactant concentration was kept constant at 27 mM. The mole ratio of SDBS to CTAT was 3:1 in all cases (70:30 w/w). For vesicle samples containing different mole fractions of C12-glu, the amount of SDBS and CTAT was adjusted accordingly to keep the stated ratio of ionic surfactants constant. […] Samples were then passed through a 0.45 μm syringe filter to remove impurity particles such as dust."}
{"smiles": "CCCCCCCCCCCCO[C@@H]1O[C@H](CO)[C@@H](O)[C@H](O)[C@H]1O", "note": "[C12-glucose, n-dodecyl-β-D-glucopyranoside]", "values": [{"measurement": "share of the vesicle bilayer that can be composed of the glycoconjugate", "result": "up to 40 mole percent"}]}
